In patent US20200016134A1, “COMPOSITIONS AND METHODS FOR TREATING SUBSTANCE ABUSE DISORDERS” (EMBERA NEUROTHERAPEUTICS, INC., priority 2016, published 2020):

Legend:
adult male Wistar rats [1] = assay: Intravenous cocaine self-administration under a multiple, alternating schedule of food reinforcement and cocaine self-administration; format: in vivo, rat; conditions: for cocaine self-administration and reinstatement of extinguished cocaine seeking: pretreatment with the single drug, summary of the studies
Procedure: Adult male Wistar rats were trained under a multiple, alternating schedule of cocaine and food self-administration. This schedule consisted of alternating periods of cocaine access and food reinforcement. In some instances, as described further below, three doses of cocaine (0.125, 0.25, or 0.50 mg/kg/infusion) were tested. Rats were also periodically trained with saline substitution (cocaine extinction) and food extinction during the same session.
More specifically, adult male Wistar rats were implanted with chronic jugular catheters. Following recovery from surgery, the rats were trained to respond under a multiple, alternating schedule of food reinforcement and cocaine self-administration. Food-maintained responding was used to control for the non-specific motor effects of the various treatments. During the food component of the schedule, the stimulus light located above the food response lever was illuminated to indicate the availability of food reinforcement. […] A 25-second timeout followed the delivery of each food pellet. During this timeout, the stimulus light was darkened and responses on the food lever were counted but had no scheduled consequences. Responding on the other (cocaine) lever during the food component also had no scheduled consequences. […] Following 15 minutes of access to food, all stimulus lights in the chamber were darkened for a 1-minute timeout. Following the timeout, the stimulus light above the cocaine response lever was illuminated to indicate the availability of cocaine (0.125, 0.25, or 0.5 mg/kg/infusion). […] A 20-second timeout period followed each infusion. […] After 15 minutes of access to cocaine and a 1-minute timeout, the rats were again allowed 15 minutes access to the food component of the schedule. Access to food and cocaine alternated in this manner every 15 minutes during the two hour behavioral sessions so that each rat was exposed to food and cocaine for four 15-minute periods each. Each behavioral session began with 15 minutes access to either food or cocaine, and this alternated daily. Stable baselines of responding were established when the total number of cocaine and food presentations, as well as the number of presentations during each of the four exposures each session, varied less than 10% for three consecutive sessions. At least three different doses of cocaine (e.g., 0.125, 0.25, and 0.5 mg/kg/infusion) were tested. Rats were first trained to self-administer 0.25 mg/kg/infusion, which was the standard dose of cocaine used. When responding stabilized, the dose was changed to 0.125 or 0.5 mg/kg/infusion as appropriate.
Once stable baselines of responding were obtained, dose-response curves for the various compounds were individually generated for each rat. Rats were treated with each dose at least twice with a minimum of two days of baseline cocaine self-administration interspersed between each test. Each group of rats was tested with only two of the test compounds to minimize potential carryover effects.

rats = conditions: Goeders et al., cited from earlier work
male Wistar rats = assay: Forced Swim Test (FST), animal model of depression
[2] = Phase I single- and multiple-rising dose study: plasma pharmacokinetics; conditions: human, in vivo
Procedure: METHODS: This was a single- and multiple-rising dose study. Healthy volunteers who smoke, aged 18-65, received a single AM dose on Day 1, BID dosing on Days 3-9 and a single AM dose on Day 10. Three sequential dose cohorts of 8 subjects (6 drug, 2 placebo) received the following doses of MET and OX, respectively: 270 and 12 mg; 540 and 24 mg; and 720 and 24 mg. Total daily doses were double these amounts on BID dosing days. Primary outcomes were safety and pharmacokinetics of MET, its active metabolite (metyrapol), and OX. Safety measures included vital signs, ECGs an standard safety labs. Cortisol and other HPA axis parameters were monitored closely throughout the study.

adult male Wistar rats [3] = assay: Cue-induced reinstatement of extinguished cocaine seeking (model of relapse); format: in vivo, rat; conditions: FIG. 11; chronic metyrapone 50 mg/kg ip, once per day for 14 days
Procedure: Training to self-administer cocaine: In one model, rats were exposed to alternating 15-minute periods of access to cocaine self-administration and food reinforcement. Food was used to control for potential nonspecific, ataxis effects of the drugs and combinations. […] In this model, rats are trained to self-administer cocaine and the ability of conditioned cues in the environment to reinstate extinguished responding is assessed and taken as a measure of relapse.
Cue-induced Reinstatement of Extinguished Cocaine Seeking: The experiments described herein were designed to investigate whether or not drug combinations identified as effective in reducing cocaine self-administration would also block the ability of conditioned cues to reinstate extinguished cocaine-seeking behavior. Adult male Wistar rats were implanted with chronic jugular catheters and trained to self-administer cocaine (0.25 mg/kg/infusion) by pressing one of the response levers in the experimental chamber (i.e., the “active” or “cocaine” lever) under a fixed-ratio four (FR4) schedule of reinforcement during daily 2-hour sessions conducted 5 days per week. At the start of each session, both levers were extended into the chamber and the stimulus light above the active lever was illuminated to indicate the availability of cocaine. […] A 20-second timeout period followed each infusion. […]

[4] = FIG. 8, high dose alone: muscimol 1-4 mg/kg ip, CP-154,526 10-80 mg/kg ip
[5] = FIG. 8, low, ineffective doses alone: muscimol 0.5-2.0 mg/kg ip, CP-154,526 5-25 mg/kg ip
[6] = FIG. 3, low, ineffective doses alone: alprazolam 0.2-2 mg/kg ip, ketoconazole 5-75 mg/kg ip
[7] = FIG. 7, high dose alone: metyrapone 25-175 mg/kg ip, alprazolam 1-5 mg/kg ip
[8] = FIG. 7, low, ineffective doses alone: metyrapone 25-50 mg/kg ip, alprazolam 0.5-2 mg/kg ip
[9] = FIG. 9, high dose alone: muscimol 1-4 mg/kg ip, metyrapone 25-175 mg/kg ip

Structure (SMILES) | cocaine self-administration (infusions, percentage of baseline) (adult male Wistar rats [1]; [4]) | cocaine self-administration (infusions, percentage of baseline) (adult male Wistar rats [1]; [5]) | cocaine self-administration and reinstatement of extinguished cocaine seeking (adult male Wistar rats [1]; rats) | cocaine self-administration (number of cocaine infusions) (adult male Wistar rats [1]; [6]) | cocaine self-administration (number of cocaine infusions) (adult male Wistar rats [1]; [7]) | cocaine self-administration (number of cocaine infusions) (adult male Wistar rats [1]; [8]) | intravenous cocaine self-administration (rats; pretreatment) | cocaine self-administration (infusions, percentage of baseline) (adult male Wistar rats [1]; [9]) | other results
CCCCN(CC)c1nc(C)nc2c1c(C)cn2-c1c(C)cc(C)cc1C [CP-154,526] | reduced cocaine self-administration | did not significantly affect cocaine self-administration | decrease cocaine self-administration and the reinstatement of extinguished cocaine seeking | – | – | – | – | – | cocaine self-administration (infusions, percentage of baseline) (adult male Wistar rats [1]; FIG. 6, high dose alone: CP-154,526 10-80 mg/kg ip, oxazepam 5-25 mg/kg ip): reduced cocaine self-administration; cocaine self-administration (infusions, percentage of baseline) (adult male Wistar rats [1]; FIG. 6, low, ineffective doses alone: CP-154,526 5-25 mg/kg ip, oxazepam 5-25 mg/kg ip): did not significantly affect cocaine self-administration
Cc1nnc2n1-c1ccc(Cl)cc1C(c1ccccc1)=NC2 [alprazolam] | – | – | decrease cocaine self-administration and the reinstatement of extinguished cocaine seeking | did not significantly affect cocaine self-administration | reduced cocaine self-administration | did not significantly affect cocaine self-administration | – | – | responding maintained by food and cocaine (rats; multiple schedule of iv cocaine and food reinforcement, initial testing, 1993): reduced responding maintained by both food and cocaine
CC(=O)N1CCN(c2ccc(OCC3COC(Cn4ccnc4)(c4ccc(Cl)cc4Cl)O3)cc2)CC1 (stereo not drawn) [ketoconazole] | – | – | decrease cocaine self-administration and the reinstatement of extinguished cocaine seeking | did not significantly affect cocaine self-administration | – | – | reduced cocaine self-administration | – | cocaine- or food-maintained responding (adult male Wistar rats [1]; ketoconazole 12.5 mg/kg tested alone): no effect; cocaine self-administration (number of cocaine infusions) (adult male Wistar rats [1]; rat, in vivo): did not significantly affect cocaine self-administration; minimally effective dose (reduces cocaine self-administration by at least 50% without affecting food-maintained responding) (adult male Wistar rats [1]; rats): 25 mg/kg
CC(C)(C(=O)c1cccnc1)c1cccnc1 [metyrapone] | – | – | decrease cocaine self-administration and the reinstatement of extinguished cocaine seeking | – | reduced cocaine self-administration | did not significantly affect cocaine self-administration | significant dose-related decreases | reduced cocaine self-administration | immobility time (male Wistar rats; chronic administration, single drug, Met50 group (metyrapone 50 mg/kg)): showed a lessening of immobility time; group means of immobility compared with vehicle (tolerance) (male Wistar rats; chronically treated groups that received only Ox or Met): equal to or exceeded the vehicle; plasma corticosterone (rats; pretreatment, 1996): significant dose-related decreases; cocaine self-administration (number of cocaine infusions) (adult male Wistar rats [1]; FIG. 1A, high dose alone: metyrapone 25-175 mg/kg ip, oxazepam 5-80 mg/kg ip): reduced cocaine self-administration; t1/2, mean [2]: 1.887 h; cocaine seeking (responding on the active lever during reinstatement) (adult male Wistar rats [3]): reduced cocaine seeking to levels seen when only saline was delivered
NCc1cc(=O)[nH]o1 [muscimol] | reduced cocaine self-administration | did not significantly affect cocaine self-administration | – | – | – | – | – | reduced cocaine self-administration | –
